# Test results taken from patent publication US20130274196A1, “METHOD FOR TREATMENT OF INFLAMMATORY DISEASE AND DISORDER” (HEALOR LTD., priority 2010, published 2013).
# Several values for one entry are separate records, joined by “and”; a condition that tells them apart may be missing. Equal entries are not always repeated. Entries after “also recorded” stand apart in the source; their conditions may differ. The star is where a group is joined. Myristoyl = CCCCCCCCCCCCCC(=O)*
# Tests used:
# keratinocytes [1] = test: Cytokine secretion in stimulated keratinocytes treated with PKCδ activator (ELISA); assay type: cell-based, BALB/C mice; conditions: stimulated by LPS or TNFα, 48 hr
# Method: (§1) PKCδ activators were also shown to have an anti-inflammatory effect on keratinocytes and splenocytes. Keratinocytes were derived from newborn BALB/C mice skin. The cells were incubated for 5 days in 24 wells plate. Cells were then incubated with PBS −/− as control or stimulated by LPS or TNFα. The PKCδ […] DAP-1 (SEQ ID NO: 34) was added. Medium containing secreted cytokines was collected after 48 hr and analyzed using ELISA. FIG. 43 is a tabular summary showing cytokine secretion in splenocytes stimulated with LPS. FIG. 44 is a tabular summary of cytokine secretion in keratinocytes stimulated by TNFα.
# splenocytes = test: Cytokine secretion in LPS stimulated splenocytes treated with PKCδ activator; assay type: cell-based
# Method: as §1
# [2] = test system: STZ-induced diabetic C57BL/6J mice; test: Wound healing in STZ-induced diabetic mice; assay type: in vivo; conditions: for Dermal closure (H&E) / Epidermal closure (K14) / Epidermal differentiation (Kl) / Granulation tissue / Hypodermis / Severe inflammation: 9-days post wounding, percent of wounds in group, insulin 0.1 units; for Dermal closure (H&E) / Epidermal closure (K14) / Epidermal differentiation (Kl): HO/02 1 ug/ml; for Granulation tissue / Hypodermis / Severe inflammation: SEQ ID NO: 6 1 ug/ml; for overall healing effect in diabetic wounds: 9 days post-wounding
# Method: Full thickness skin incisions (20 mm) were performed on the upper back of anesthetized streptozocin (STZ)-injected (175 mg/kg body weight) diabetic, citrate buffer injected (6 mice/group) non-diabetic, and non-injected (6 mice/group), C57BL/6J mice. Periodical blood glucose monitoring was performed by measuring glucose levels from tail vein after STZ injection. […] Following incision, STZ-induced diabetic wounds were treated daily by application of PBS (7/6 mice/group), insulin (0.1 units/ml) (6 mice/group), the PKCa inhibitor of SEQ ID NO:6 (1 μg/ml) (7/5 mice/group) or a formulation (herein designated HO/03/03) containing insulin and the N-myristoylated PKCα inhibitor of SEQ ID NO: 6 (7/6 mice/group) directly to the surgical dressing. Biopsies were collected 9 days post-wounding. Wounds were excised from euthanized animals for evaluation of wound-healing parameters by histology and immunohistochemistry.
# Wounds were assessed for epidermal closure by Keratin 14 staining. Wounds were considered closed when complete epidermal staining was observed across the wound gap. Dermal contraction was considered when both dermal edges were visible in a fixed field ×100 magnification utilizing H&E staining. Epidermal differentiation was assessed by Keratin 1 staining.
# The organization of hypodermis was assessed by the presence (or absence) of hypodermis at both wound edges. Granulation tissue formation was assessed by the presence of fibroblasts and collagen fibers in the wound bed. The wound was considered positive for granulation tissue formation when a continuous layer of granulation tissue was present in the wound gap. In addition, we have defined 3 specific histological parameters characterizing severe inflammation of diabetic wounds: (i) abscess formation at the wounded area, (ii) excessive leukocytosis (>100 cells in a fixed field (×200)) and (iii) high white blood cells (WBC)/red blood cells (RBC) ratio within the blood vessels shown in a fixed field (×200). When at least 2 of these parameters are present at the wound gap, the wound is considered severely inflamed.
# C57BL mice [3] = test: Incision wounds treated 7 days, histological analysis (Example 9); assay type: in vivo
# Method: Wounds were performed on the back of 8-10 week old C57BL mice by incision and were treated daily for 7 days with either vehicle (PBS) control or with 1 μM insulin (Humulin, Eli Lilly, USA) or a mixture of 1 μM insulin combined with 1 μM of the PKCα inhibitor of SEQ ID NO: 6. Seven days after wounding all mice were sacrificed and treated wounds were histologically analyzed for proliferative capacity of the epidermis (proliferating cell nuclear antigen-PCNA), angiogenesis, inflammation, epidermal cells and the remodeling processes at the wound gap.
# C57BL mice [4] = test: Incision wounds treated 7 days, severe inflammation incidence (Example 10); assay type: in vivo; conditions: 1 μM daily for 7 days; for Incidence of severe inflammation in wound (%): PBS control 60
# Method: Wounds were performed on the back of C57BL mice by incision and were treated daily for 7 days with: (i) PBS, control; (ii) 1 μM of the PKCα inhibitor of SEQ ID NO: 6; (iii) 1 μM insulin (Humulin, Eli Lilly, USA); or (iv) a mixture of 1 μM PKCα inhibitor and 1 μM insulin.
# EAE mice = test: Experimental allergic encephalomyelitis (EAE), MOG35-55/CFA immunized mice; assay type: in vivo, C57BL/6J mice; conditions: for Score on day 18 / Score on day 29 / Score on day 37: EAE scale 0-6; for EAE score on the initial day: scale 0-6
# [5] = test system: histamine induced pruritus; test: Histamine prick test model of pruritus; assay type: in vivo, healthy volunteers; conditions: for Pruritus score: scale 0-4, individual subject
# Method: Forearms of individual subjects were injected with histamine solution and placebo. The formulation of Example 4 was topically applied with MPDY-1 at various concentrations and pruritus was assessed over a time course as shown in FIGS. 39-42.
# This test was performed by placing a drop of a solution containing a possible allergen on the skin, and a series of scratches or needle pricks allow the solution to enter the skin. The extract enters into the outer layer of the skin (epidermis) using a fine needle (such as a. 26G disposable needle). This testing is not painful, and generally there is no bleeding involved since the needle only scratches the surface of the skin. If the skin develops a red, raised itchy area (called a wheal), it is as a result of allergic reaction to that allergen. This is called a positive reaction. A drop of extract is introduced through a fine needle (such as a No. 26 disposable needle). The test causes no discomfort and minimal trauma so that controls and negative test show only the site of the prick; if anything.
# 26G needles were utilized to introduce histamine stock (Histatrol Positive Control Histamine, 1 mg/ml, code #HIST14999V, Trupharm). The test was conducted on healthy volunteers in a double-blind, randomized test. The formulations were applied on the forearms. Three treatment areas were chosen and marked (the surface of the forearm from the elbow to the wrist was divided transversely into proximal, middle and distal thirds); the areas were pricked prior the below treatments.
# An area was treated with the active formulation in a double-blind manner, for 10 minutes—marked as A.
# An area was treated with the Placebo in a double-blind manner, for 10 minutes—marked as C.
# A color photograph was taken at time zero (T0), after 10, 20, 30 minutes.
# Pruritus questionnaire was answered by the subjects 5 and 15 minutes after treatment.
# Subjects were provided with pruritus sensation forms and asked to indicate the level of pruritus sensed from 0 (no response) to 4 (uncontrollable pruritus) at different time intervals.
# macrophages = test: Macrophage infiltration in skin wound (Iba-1 staining); assay type: in vivo, C57BL/6J mouse; conditions: daily treatment, five days post-wounding
# Method: The effect of MPDY-1 on macrophage infiltration was also shown by Iba-1 staining. Iba-1 is a general marker for macrophages. […] As above, a two-cm longitudinal incision was done on the upper back of a C57BL/6J mouse. Following wounding, a sterile pad was sutured to the mouse's skin. Animals were treated daily with MPDY-1 (n=6). Five days post-wounding, when inflammatory phase reaches its peak, the mice were sacrificed, skin tissues were embedded in paraffin and immunohistochemical staining was performed utilizing anti-Iba-1 antibodies.
# keratinocytes [6] = test: Cytokine secretion in LPS, TNFα or IL-17 activated keratinocytes treated with peptide PKCα inhibitors (ELISA); assay type: cell-based, BALB/C mice
# Method: To determine their effects, keratinocytes were derived from newborn BALB/C mice skin. The cells were incubated for 5 days in 24 wells plate. Cells were then incubated with PBS −/− as control or stimulated by LPS, TNFα, or IL-17. PKCα inhibitors were added as indicated. Medium containing secreted cytokines was collected after 48 hr and analyzed using ELISA. FIG. 50 is a tabular summary of cytokine secretion.
# activated macrophages = test: Macrophage activation in skin wound (MAC-2 staining); assay type: in vivo, C57BL/6J mouse; conditions: daily treatment, 5 days; p(control vs 10 μg)=0.0028
# Method: The effect of MPDY-1 on macrophage activation was also shown by MAC-2 staining. MAC-2 is a specific marker for activated macrophages. […] A two-cm longitudinal incision was done as described above. Animals were treated daily with DPBS^−/− (Control) or MPDY-1 in the specified concentrations (n=6). After 5 days immunohistochemical staining was performed utilizing anti-MAC-2 antibodies. Bar […]. (*p(control Vs. MPDY-1 10 μg)=0.0028).
# IKK = test: TNFα induced IKK activation in keratinocytes (phospho-IKKa/b Western blot); assay type: cell-based, Murine; conditions: 1 hour pretreatment, TNFα 35 ng/ml 15 minutes
# Method: Murine primary keratinocytes were grown for 4 days to full confluence in Low Ca^+2 MEM. Cells were pretreated with designated concentration of MPDY-1 as described in the figure for 1 hour, prior to TNFα induction. Following MPDY-1 pretreatment, cells were incubated with TNFα 35 ng/ml for 15 minutes. Reaction was stopped by adding ice-cold dPBS−/− and keratinocytes were homogenized in RIPA buffer. Samples were subjected to SDS PAGE Western Blot analysis, utilizing phospho-IKKa/b (Ser176/180 antibody).
# [7] = individual wounds, 1 μM daily for 7 days, listed as Insulin only
substance,measurement,setting,value
H-His-Phe-Glu-Asp-Trp-Ile-Asp-His-Phe-Glu-Asp-Trp-Ile-Asp-OH (H-HFEDWIDHFEDWID-OH) [DAP-1],inflammatory cytokine secretion in keratinocytes,keratinocytes [1],significantly decease inflammatory cytokine secretion
same,inflammatory cytokine secretion in splenocytes,splenocytes,significantly decease inflammatory cytokine secretion
"Insulin: insulin (Humulin, Eli Lilly, USA)",Dermal closure (H&E),[2],0%
same,Epidermal closure (K14),[2],17%
same,Epidermal differentiation (Kl),[2],0%
same,Granulation tissue,[2],40%
same,Hypodermis,[2],10%
same,Severe inflammation,[2],100%
same,overall healing effect in diabetic wounds,[2],only partial healing effects
same,adverse side effects at the wound,C57BL mice [3]; 1 μM daily for 7 days,"increased inflammation, hyperplasia of epidermal cells, delayed differentiation of the spinous layer of epidermal cells and increased scarring"
same,incidence of abnormal angiogenesis in the wound area,"C57BL mice [3]; 1 μM daily for 7 days, PBS control 25%",60%
same,"Proliferative capacity of the epidermis (layers of basal cells, PCNA), average","C57BL mice [3]; group average, N = 5, 1 μM daily for 7 days",average 6.4
same,Angiogenesis,C57BL mice [3]; [7],high abnormal; also recorded: normal
same,"Proliferative capacity of the epidermis (layers of basal cells, PCNA)",C57BL mice [3]; [7],8 (2×) and 6 and 5 (2×)
same,anti-inflammatory effect on wounds,C57BL mice [4],no anti-inflammatory effect
same,Incidence of severe inflammation in wound (%),C57BL mice [4],56%
Myristoyl-Phe-Ala-Arg-Lys-Gly-Ala-Leu-Arg-Gln-OH (Myristoyl-FARKGALRQ-OH; SMILES CCCCCCCCCCCCCC(=O)N[C@@H](Cc1ccccc1)C(=O)N[C@@H](C)C(=O)N[C@@H](CCCNC(=N)N)C(=O)N[C@@H](CCCCN)C(=O)NCC(=O)N[C@@H](C)C(=O)N[C@@H](CC(C)C)C(=O)N[C@@H](CCCNC(=N)N)C(=O)N[C@@H](CCC(N)=O)C(=O)O) [MPDY-1],Dermal closure (H&E),[2],17%
same,Epidermal closure (K14),[2],17%
same,Epidermal differentiation (Kl),[2],17%
same,Granulation tissue,[2],50%
same,Hypodermis,[2],10%
same,Severe inflammation,[2],30%
same,overall healing effect in diabetic wounds,[2],only partial healing effects
same,The initial day (of illness signs),EAE mice; 0.1 mg/kg,13 days
same,EAE severity / score compared to control group,EAE mice; 0.1 mg/kg (0.1 μg/ml),lower score during most of the experiment days; also recorded: reduced EAE severity
same,delay of development of EAE clinical conditions compared to control group,EAE mice; 0.1 mg/kg (0.1 μg/ml),two days later than the control group; also recorded: two days delay
same,Score on day 18,EAE mice; 0.1 mg/kg,2.571
same,Score on day 29,EAE mice; 0.1 mg/kg,2.000
same,Score on day 37,EAE mice; 0.1 mg/kg,1.500
same,EAE score on the initial day,EAE mice; 0.1 mg/kg,1.000
same,The initial day (of illness signs),EAE mice; 1 mg/kg,11 days
same,Number of dead mice during 49 days,"EAE mice; 1 mg/kg i.p. three times a week, n=7",2
same,Score on day 18,EAE mice; 1 mg/kg,3.143
same,Score on day 29,EAE mice; 1 mg/kg,3.286
same,Score on day 37,EAE mice; 1 mg/kg,3.071
same,EAE score on the initial day,EAE mice; 1 mg/kg,0.214
same,average group score at the end of the experiment (day 42),"EAE mice; concentration of 0.1 μg/ml, control group score 2.86",1.93
same,Pruritus score,"[5]; 5 minutes after histamine, MPDY-1 1 μg/ml (A1)",3
same,Pruritus score,"[5]; 5 minutes after histamine, MPDY-1 10 μg/ml (A2)",2
same,Pruritus score,"[5]; 15 minutes after histamine, MPDY-1 1 μg/ml (A1)",1
same,Pruritus score,"[5]; 15 minutes after histamine, MPDY-1 10 μg/ml (A2)",0
same,"redness, inflammation and pruritus compared with control over the time course",[5]; topical application,"significantly attenuated redness, inflammation and pruritus"
same,macrophage infiltration (Iba-1 positive cells per field),macrophages,dose dependent effect
same,cytokine secretion from IL-17A activated keratinocytes,keratinocytes [6]; IL-17A activated,decrease cytokine secretion
same,cytokine secretion from LPS and TNFα activated keratinocytes,keratinocytes [6]; LPS and TNFα activated,decrease cytokine secretion
same,cytokine secretion in keratinocytes,"keratinocytes [6]; stimulated by LPS, TNFα, or IL-17, medium collected after 48 hr",effective in decreasing cytokine secretion
same,activation of macrophages (MAC-2 positive cells per field),activated macrophages,significantly inhibited
same,"decrease of severe wound inflammation incidence, as compared to control",C57BL mice [4],33.3%
same,Incidence of severe inflammation in wound (%),C57BL mice [4],40%
same,TNFα induced IKK activation in keratinocytes,IKK,significantly reduced TNFα induced IKK activation
same,concentration exhibiting the strongest inhibition of IKK activation (lowest concentration),IKK,0.1 mg/mL
